Common to all, as to assay: DTP human tumour cell line panel, 48 h
Assay [1] has as its system T47D.
The test system of assay [2] is UO-31.
For assay [3], the system named is UACC-257.
Assay [4] has as its system PC-3.
Assay [5] concerns CCRF-CEM.
Assay [6] has as its system HCT-116.
Assay [7] has as its system MCF7.
Assay [8] relates to DU-145.
Assay [9] relates to SNB-19.
The subject of assay [10] is 786-0.
Assay [11] has as its system SR.
Assay [12] has as its system RXF 393.
Assay [13] concerns UACC-62.
Assay [14] deals with K562.
Assay [15] deals with NCI/ADR-RES.
The subject of assay [16] is COLO 205.
The test system of assay [17] is SF-268.
For assay [18], the system named is SK-MEL-28.

Here are results for four molecules from ChEMBL document CHEMBL1201862, “PubChem BioAssay data set” (2004).

Molecules are shown by their SMILES.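 Five compound concentrations were applied to cells in 96-well plates for 48 hours; endpoints were derived by simple linear interpolation of the resulting dose-response curve. GI50 = concentration required for 50% inhibition of growth.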 Activity calls are given as the source filed them. Rule as the data show it: active = GI50 up to about 1.1 µM and inactive = higher.

As a reminder, the GI50 is the concentration that inhibits growth by half.

`Cc1ccc(-c2ccc3c(c2)Sc2ccccc2O3)n1C`: the GI50 in assay [1] is > 100 µM (inactive); in [2] it was 0.67 µM (active); in assay [3], 19.5 µM (inactive); in assay [4], 0.348 µM (active); in assay [5], 0.213 µM (active); in assay [6], 0.167 µM (active). Further, the GI50 in assay [7] was 0.324 µM (active); in [8], 1.13 µM (inactive); in [9] it was 0.607 µM (active); in [10], 0.553 µM (active); in assay [11], 0.0675 µM (active); in [12], 0.283 µM (active). The GI50 in assay [13] is 0.0593 µM (active); in assay [14] it was 0.137 µM (active); in [15], 0.206 µM (active); in assay [16], 0.232 µM (active); in assay [17], 0.791 µM (active).

With `CC(=O)OCC1OC(SC2=NC(=O)/C(=C/c3ccccc3)S2)C(OC(C)=O)C(OC(C)=O)C1OC(C)=O` (stereo not drawn), the GI50 in assay [1] is 24.2 µM (inactive); in assay [2], 23.1 µM (inactive); in [3], 34.2 µM (inactive); in assay [4], 40.1 µM (inactive); in [5], 28.4 µM (inactive); in assay [6], 29.4 µM (inactive). Besides, the GI50 was 18.9 µM (inactive) in [7]; 95.1 µM (inactive) in assay [8]; 35.1 µM (inactive) in [9]; 16.9 µM (inactive) in [10]; 10.9 µM (inactive) in [11]; 30.8 µM (inactive) in assay [18]. The GI50 in [12] was 26 µM (inactive); in [13] it was 21.1 µM (inactive); in [15], 30.4 µM (inactive); in [16], 45.6 µM (inactive); in assay [17], 20.1 µM (inactive).

Consider `Clc1cccc(/C=N/C23CC4CC(CC(C4)C2)C3)c1Cl`, for which the GI50 in assay [1] was > 10 µM (inactive); in assay [3] it was > 10 µM (inactive); in assay [4] it was > 10 µM (inactive); in [5] it was > 10 µM (inactive); in assay [6], 6.35 µM (inactive); in assay [7] it was > 10 µM (inactive). The GI50 is > 10 µM (inactive) in assay [8]; > 10 µM (inactive) in [9]; > 10 µM (inactive) in assay [10]; 0.637 µM (active) in assay [11]; > 10 µM (inactive) in assay [18]; > 10 µM (inactive) in assay [12]. Moreover, the GI50 in assay [13], in assay [14], in assay [15], in assay [16] and in assay [17] was > 10 µM (inactive) in each case.

As for `C=C(C)[C@H]1C=C[C@@H](OC(=O)c2cccnc2)[C@@]23CO[C@@](C)([C@H](OC(=O)c4cccnc4)[C@@]4(OC(C)=O)C[C@H](C)[C@H](OCCC)[C@@H]4[C@H]2OC(C)=O)[C@H]13`, the GI50 in [1] is > 15 µM (inactive); in assay [2], > 15 µM (inactive); in assay [3] it was > 15 µM (inactive); in assay [4], 7.74 µM (inactive); in assay [5], 2.84 µM (inactive); in assay [6], > 15 µM (inactive). Moreover, the GI50 in assay [7] was > 15 µM (inactive); in assay [8], > 15 µM (inactive); in [9] it was > 15 µM (inactive); in assay [10], > 15 µM (inactive); in assay [11], 11.9 µM (inactive); in [12], > 15 µM (inactive). Besides, the GI50 in [13] was > 15 µM (inactive); in [14], 7.73 µM (inactive); in [15], > 15 µM (inactive); in assay [16], 8.09 µM (inactive); in assay [17], > 15 µM (inactive).
